Data taken from the supplement of paper PMC13380429.

Assays:
Conditions in all cases: 72 h
Calu-3 [1] = test: cell viability relative to DMSO; higher = less toxic
Vero E6 [2] = test: as above
Caco-2 [3] = test: as above
U2OS [4] = test: as above
HepG2 [5] = test: as above
Calu-3 [6] = test: relative viability EC50 (midpoint between 100% and the lowest measured viability); higher = less toxic
Vero E6 [7] = test: as above
Caco-2 [8] = test: as above
U2OS [9] = test: as above
HepG2 [10] = test: as above
Calu-3 [11] = test: drug sensitivity score (DSS) for viability; higher = more toxic; extreme values may be limits of the assay
Vero E6 [12] = test: as above
Caco-2 [13] = test: as above
U2OS [14] = test: as above
HepG2 [15] = test: as above

Row | Compound | cell viability (Calu-3 [1]; 1 nM) [%] | cell viability (Calu-3 [1]; 10 nM) [%] | cell viability (Calu-3 [1]; 100 nM) [%] | cell viability (Calu-3 [1]; 1000 nM) [%] | cell viability (Calu-3 [1]; 10000 nM) [%] | cell viability (Vero E6 [2]; 1 nM) [%] | cell viability (Vero E6 [2]; 10 nM) [%] | cell viability (Vero E6 [2]; 100 nM) [%] | cell viability (Vero E6 [2]; 1000 nM) [%] | cell viability (Vero E6 [2]; 10000 nM) [%] | cell viability (Caco-2 [3]; 1 nM) [%] | cell viability (Caco-2 [3]; 10 nM) [%] | cell viability (Caco-2 [3]; 100 nM) [%] | cell viability (Caco-2 [3]; 1000 nM) [%] | cell viability (Caco-2 [3]; 10000 nM) [%] | cell viability (U2OS [4]; 1 nM) [%] | cell viability (U2OS [4]; 10 nM) [%] | cell viability (U2OS [4]; 100 nM) [%] | cell viability (U2OS [4]; 1000 nM) [%] | cell viability (U2OS [4]; 10000 nM) [%] | cell viability (HepG2 [5]; 1 nM) [%] | cell viability (HepG2 [5]; 10 nM) [%] | cell viability (HepG2 [5]; 100 nM) [%] | cell viability (HepG2 [5]; 1000 nM) [%] | cell viability (HepG2 [5]; 10000 nM) [%] | relative viability EC50 (Calu-3 [6]) [µM] | relative viability EC50 (Vero E6 [7]) [µM] | relative viability EC50 (Caco-2 [8]) [µM] | relative viability EC50 (U2OS [9]) [µM] | relative viability EC50 (HepG2 [10]) [µM] | drug sensitivity score (Calu-3 [11]) | drug sensitivity score (Vero E6 [12]) | drug sensitivity score (Caco-2 [13]) | drug sensitivity score (U2OS [14]) | drug sensitivity score (HepG2 [15])
1 | CCOc1ccc(C[C@H]2NC(=O)CCSSC[C@@H](C(=O)N3CCC[C@H]3C(=O)N[C@@H](CCCN)C(=O)NCC(N)=O)NC(=O)[C@H](CC(N)=O)NC(=O)[C@H]([C@@H](C)O)NC(=O)[C@H]([C@@H](C)CC)NC2=O)cc1 [atosiban] | 103 | 105 | 103 | 118 | 98.9 | 102 | 96.2 | 110 | 102 | 100 | 93.1 | 108 | 102 | 102 | 91.8 | 100 | 99.1 | 94.9 | 100 | 98.7 | 107 | 99.5 | 92.8 | 90.4 | 97.4 | > 10 | > 10 | > 10 | > 10 | > 10 | 0 | 0 | 0 | 0 | 0
2 | OC(c1ccccc1)(c1ccccc1)C1CCNCC1 [azacyclonol] | 88.6 | 99.5 | 90 | 97 | 101 | 105 | 100 | 102 | 99.9 | 99.9 | 93.6 | 102 | 97 | 102 | 93.6 | 102 | 99.2 | 98.5 | 102 | 97.1 | 116 | 91.6 | 101 | 97.8 | 93 | > 10 | > 10 | > 10 | > 10 | > 10 | 0 | 0 | 0 | 0 | 0
3 | C=C[C@]1(C)CC[C@@H](C(=C)C)C[C@H]1C(=C)C [beta-elemene] | 106 | 98.4 | 103 | 97.2 | 102 | 97.4 | 97.2 | 95.7 | 97.8 | 96.6 | 95.3 | 98.6 | 97.5 | 92.6 | 102 | 102 | 98 | 97 | 96.4 | 101 | 95.8 | 101 | 93.2 | 106 | 103 | > 10 | > 10 | > 10 | > 10 | > 10 | 0 | 0 | 0 | 0 | 0
4 | CCOc1nc2cccc(C(=O)OC(C)OC(=O)OC3CCCCC3)c2n1Cc1ccc(-c2ccccc2-c2nn[nH]n2)cc1 (stereo not given) [candesartan-cilexetil] | 93.1 | 105 | 99.5 | 105 | 105 | 107 | 106 | 109 | 104 | 99.1 | 95.6 | 100 | 91.4 | 101 | 86.5 | 93.7 | 106 | 93.6 | 90.9 | 92.7 | 98.3 | 103 | 104 | 102 | 100 | > 10 | > 10 | > 10 | > 10 | > 10 | 0 | 0 | 0.1 | 0 | 0
5 | C[C@@](Cc1ccc(O)c(O)c1)(NN)C(=O)O [carbidopa] | 100 | 103 | 89.5 | 114 | 99.9 | 92.6 | 87.6 | 91.4 | 90.4 | 106 | 98.1 | 94.4 | 95.1 | 110 | 108 | 92.9 | 99.9 | 92.8 | 100 | 102 | 107 | 113 | 101 | 98.5 | 95.8 | > 10 | > 10 | > 10 | > 10 | > 10 | 0 | 0 | 0 | 0 | 0
6 | CCCCCCCCCCCCCCCCOc1nc2ccc(C)cc2c(=O)o1 [cetilistat] | 103 | 107 | 94.8 | 100 | 107 | 99.8 | 81.8 | 98 | 99.4 | 105 | 94.8 | 96.6 | 89.8 | 107 | 96.7 | 93.7 | 98.2 | 93.5 | 99.7 | 103 | 106 | 94 | 113 | 99.9 | 97.9 | > 10 | > 10 | > 10 | > 10 | > 10 | 0 | 0 | 0 | 0 | 0
7 | O=C(O)CCC(=O)OC[C@@H](NC(=O)C(Cl)Cl)[C@H](O)c1ccc([N+](=O)[O-])cc1 [chloramphenicol-sodium-succinate] | 108 | 97.1 | 97.3 | 91 | 106 | 104 | 104 | 96.5 | 102 | 97.2 | 103 | 95.1 | 98.2 | 100 | 103 | 100 | 96.9 | 98.1 | 99.3 | 102 | 105 | 114 | 88.3 | 103 | 96.3 | > 10 | > 10 | > 10 | > 10 | > 10 | 0 | 0 | 0 | 0 | 0
8 | NCC(=O)N1C[C@H](NC(=O)c2ccccc2)C[C@H]1C(=O)O [danegaptide] | 98.6 | 93.3 | 101 | 96.4 | 91.1 | 101 | 101 | 93.8 | 99.9 | 106 | 98.3 | 97.1 | 90.7 | 86.3 | 107 | 93.6 | 93.6 | 98.5 | 101 | 99.3 | 106 | 102 | 99.7 | 101 | 104 | > 10 | > 10 | > 10 | > 10 | > 10 | 0 | 0 | 0 | 0 | 0
9 | CCCCCCCCCCOc1cc2c(O)c(C(=O)OCC)cnc2cc1OCC [decoquinate] | 99.8 | 107 | 106 | 98.2 | 105 | 102 | 103 | 105 | 96.7 | 103 | 101 | 92.6 | 93.3 | 89.4 | 96.6 | 100 | 99.8 | 99 | 99.6 | 100 | 95.9 | 103 | 98.9 | 107 | 96.2 | > 10 | > 10 | > 10 | > 10 | > 10 | 0 | 0 | 0 | 0 | 0
10 | N#CC(Cc1ccc(O)cc1)c1ccc(O)cc1 (stereo not given) [diarylpropionitrile] | 108 | 91.2 | 100 | 94.3 | 103 | 99.4 | 104 | 99.1 | 102 | 94.8 | 99 | 103 | 88.4 | 100 | 95.3 | 99.6 | 99.4 | 98.7 | 102 | 102 | 98.7 | 90.3 | 99.6 | 89.2 | 102 | > 10 | > 10 | > 10 | > 10 | > 10 | 0 | 0 | 0 | 0 | 0
11 | COc1ccc(Cc2cnc(N)nc2N)cc1OC [diaveridine] | 86.6 | 94.4 | 97.7 | 84.3 | 88.9 | 99.5 | 104 | 97 | 98.2 | 94.3 | 96.9 | 90.4 | 100 | 93 | 96.6 | 105 | 103 | 107 | 96.7 | 102 | 95.6 | 102 | 89.2 | 95.8 | 98 | > 10 | > 10 | > 10 | > 10 | > 10 | 0 | 0 | 0 | 0 | 0
12 | CCN(CC)C(=O)N1CCN(C)CC1 [diethylcarbamazine] | 102 | 91.4 | 103 | 103 | 102 | 103 | 97.5 | 102 | 103 | 99.3 | 98.2 | 95.4 | 97.2 | 88.5 | 99.9 | 103 | 97.8 | 102 | 91.4 | 98.1 | 88.1 | 100 | 105 | 101 | 107 | > 10 | > 10 | > 10 | > 10 | > 10 | 0 | 0 | 0 | 0 | 0
13 | C[C@]12CC[C@H](O)C[C@H]1CC[C@@H]1[C@@H]2CC[C@]2(C)[C@@H](C3=CC(=O)OC3)CC[C@]12O [digitoxigenin] | 97.7 | 93.4 | 104 | 50.5 | 17.7 | 108 | 97.3 | 13.2 | 0.7 | 0.6 | 78.9 | 84.9 | 84.1 | 36 | 42.3 | 105 | 105 | 101 | 16.4 | 6.9 | 118 | 117 | 94.5 | 39.2 | 12.2 | 0.849 | 0.0448 | 0.18 | 0.435 | 0.605 | 10.5 | 28.4 | 13.5 | 15.2 | 12.4
14 | C[C@]12CC[C@H](O)C[C@H]1CC[C@@H]1[C@@H]2C[C@@H](O)[C@]2(C)[C@@H](C3=CC(=O)OC3)CC[C@]12O [digoxigenin] | 99.8 | 111 | 101 | 91.6 | 29 | 107 | 108 | 77.4 | 1.3 | 1.1 | 92.9 | 106 | 114 | 80.5 | 44.6 | 96.9 | 105 | 92.3 | 58.4 | 5.8 | 100 | 109 | 89.1 | 39.5 | 12.6 | 2.19 | 0.163 | 1.28 | 1.14 | 0.52 | 5.3 | 21.4 | 5.7 | 10 | 12.8
